{"source": "patent US20220402950A1", "about": "“SUBSTITUTED BENZIMIDAZOLES AS PAD4 INHIBITORS” (BRISTOL-MYERS SQUIBB COMPANY, priority 2018, published 2022)", "data": [{"target": "human PAD4 (hPAD4) (Homo sapiens, UniProt Q9UM07)", "sequence (Q9UM07 whole entry)": "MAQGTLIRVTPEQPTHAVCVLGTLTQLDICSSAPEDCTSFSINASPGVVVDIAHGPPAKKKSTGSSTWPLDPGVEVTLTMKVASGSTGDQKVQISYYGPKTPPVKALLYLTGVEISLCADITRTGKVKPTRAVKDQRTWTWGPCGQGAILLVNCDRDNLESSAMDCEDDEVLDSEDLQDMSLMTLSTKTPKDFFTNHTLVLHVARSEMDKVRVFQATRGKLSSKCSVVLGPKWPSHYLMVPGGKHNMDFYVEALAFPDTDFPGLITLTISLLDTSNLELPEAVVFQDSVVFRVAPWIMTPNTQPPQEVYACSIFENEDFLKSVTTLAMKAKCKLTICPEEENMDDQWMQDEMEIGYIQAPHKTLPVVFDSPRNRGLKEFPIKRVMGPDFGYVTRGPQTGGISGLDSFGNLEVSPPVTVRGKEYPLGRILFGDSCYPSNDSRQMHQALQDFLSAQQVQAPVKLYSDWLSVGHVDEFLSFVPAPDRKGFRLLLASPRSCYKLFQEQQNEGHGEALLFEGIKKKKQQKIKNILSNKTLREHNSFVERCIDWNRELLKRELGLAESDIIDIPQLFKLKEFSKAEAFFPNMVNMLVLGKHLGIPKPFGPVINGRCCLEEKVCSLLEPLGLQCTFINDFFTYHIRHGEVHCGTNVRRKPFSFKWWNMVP", "test": "RFMS Human PAD4 Functional Assay", "format": "biochemical", "details": "hPAD4 RFMS IC50, human PAD4, rapid-fire mass spectrum (RFMS) assay; 5 nM hPAD4, 250 μM BAEE", "how_it_was_run": "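RapidFire ESI-MS quantification, normalised to a modified-citrulline internal standard, after phenyl glyoxal (final 4 mM) derivatisation of the TCA-quenched reaction. The enzyme (10 nM) sat 30 min with compound (up to 50 μM final) before 500 μM BAEE (as added) started a 90 min, 37 °C reaction. Buffer: HEPES pH 7.5, 50 μM calcium, 5 μM TPEN.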", "units": {"IC50": "nM"}, "values": [{"smiles": "COc1cc(C(=O)N2C[C@H]3CC[C@@H]2[C@@H]3N)cc2nc(-c3cc4cccc(Br)c4n3CC3CC3(F)F)n(C)c12", "note": "(stereo partly drawn) [Example 146, ((1R,4R,7R)-7-amino-2-azabicyclo[2.2.1]heptan-2-yl)(2-(7-bromo-1-((2,2-difluorocyclopropyl)meth-yl)-1H-indol-2-yl)-7-methoxy-1-methyl-1H-benzo[d]imidazol-5-yl)methanone]", "IC50": 52}, {"smiles": "COc1cc(C(=O)N2CC3CCC2[C@@H]3N)cc2nc(-c3cc4cccc(-c5cnn(C6CCOCC6)c5)c4n3CC3CC3)n(C)c12", "note": "(stereo partly drawn) [Example 132, ((7R)-7-amino-2-azabicyclo[2.2.1]heptan-2-yl)(2-(1-(cyclopropylmethyl)-7-(1-(tetrahydro-2H-pyran-4-yl)-1H-pyrazol-4-yl)-1H-indol-2-yl)-7-methoxy-1-methyl-1H-benzo[d]imidazol-5-yl)methanone]", "IC50": 179}, {"smiles": "COc1cc(C(=O)N2C[C@H]3CC[C@@H]2[C@@H]3N)cc2nc(-c3cc4cccc(C5CCN(C(=O)CO)CC5)c4n3CC3CC3)n(C)c12", "note": "[Example 240, 1-(4-(2-(5-((1R,4R,7R)-7-amino-2-azabicyclo[2.2.1]heptane-2-carbonyl)-7-methoxy-1-methyl-1H-benzo[d]imidazol-2-yl)-1-(cyclopropylmethyl)-1H-indol-7-yl)piperidin-1-yl)-2-hydroxyethan-1-one]", "IC50": 15}, {"smiles": "COc1cc(C(=O)N2CC3CC[C@@H]2[C@@H]3N)cc2nc(-c3cc4cccc(-c5ccc6c(c5)C(C)(C)OC(=O)N6)c4n3CC3CC3)n(C)c12", "note": "(stereo in doubt) [Example 142, 6-(2-(5-((1R,4S)-7-amino-2-azabicyclo[2.2.1]heptane-2-carbonyl)-7-methoxy-1-methyl-1H-benzo[d]imidazol-2-yl)-1-(cyclopropylmethyl)-1H-indol-7-yl)-4,4-dimethyl-1,4-dihydro-2H-benzo[d][1,3]oxazin-2-one]", "IC50": 180}, {"smiles": "COc1cc(C(=O)N2C[C@H]3CC[C@@H]2[C@@H]3N)cc2nc(-c3cc4cccc(-c5ccc(CNC(C)=O)cc5)c4n3CC3CC3)n(C)c12", "note": "[Example 89, N-{[4-(2-{5-[(1R,4R,7R)-7-amino-2-azabicyclo[2.2.1]heptane-2-carbonyl]-7-methoxy-1-methyl-1H-1,3-benzodiazol-2-yl}-1-(cyclopropylmethyl)-1H-indol-7-yl)phenyl]methyl}acetamide]", "IC50": 108}, {"smiles": "COc1cc(C(=O)N2C[C@H]3CC[C@@H]2[C@@H]3N)cc2nc(-c3cc4cccc(C5CC(C(=O)N6CCC6)C5)c4n3CC3CC3)n(C)c12", "note": "(single isomer, unassigned; isomer 1) [Example 202]", "IC50": 24}, {"smiles": "COc1cc(C(=O)N2C[C@H]3CC[C@@H]2[C@@H]3N)cc2nc(-c3cc4cccc(C5CC(C(=O)N6CCC6)C5)c4n3CC3CC3)n(C)c12", "note": "(single isomer, unassigned; isomer 2) [Example 203]", "IC50": 46}, {"smiles": "COc1ccc(NC(=O)N2CCC(c3cccc4cc(-c5nc6cc(C(=O)N7C[C@H]8CC[C@@H]7[C@@H]8N)cc(OC)c6n5C)n(CC5CC5)c34)CC2)cc1", "note": "[Example 246, 4-(2-(5-((1R,4R,7R)-7-amino-2-azabicyclo[2.2.1]heptane-2-carbonyl)-7-methoxy-1-methyl-1H-benzo[d]imidazol-2-yl)-1-(cyclopropylmethyl)-1H-indol-7-yl)-N-(4-methoxyphenyl)piperi-dine-1-carboxamide]", "IC50": 6}, {"smiles": "COc1cc(C(=O)N2C[C@H]3CC[C@@H]2[C@@H]3N)cc2nc(-c3cc4cccc(-c5ccc6[nH]c(=O)cc(C)c6c5)c4n3CC3CC3)n(C)c12", "note": "[Example 95, 6-(2-{5-[(1R,4R,7R)-7-amino-2-azabicyclo[2.2.1]heptane-2-carbonyl]-7-methoxy-1-methyl-1H-1,3-benzodiazol-2-yl}-1-(cyclopropylmethyl)-1H-indol-7-yl)-4-methyl-1,2-dihydroquinolin-2-one]", "IC50": 107}, {"smiles": "COc1cc(C(=O)N2C[C@H]3CC[C@@H]2[C@@H]3N)cc2nc(-c3cc4cccc(-c5ccc6c(c5)CC(=O)N6)c4n3CC3CC3)n(C)c12", "note": "[Example 97, 2′-{5-[(1R,4R,7R)-7-amino-2-azabicyclo[2.2.1]heptane-2-carbonyl]-7-methoxy-1-methyl-1H-1,3-benzodiazol-2-yl}-1′-(cyclopropylmethyl)-2,3-dihydro-1H,1′H-[5,7′-biindole]-2-one]", "IC50": 23}, {"smiles": "CCCc1cccc2cc(-c3nc4cc(C(=O)N5C[C@H]6CC[C@@H]5[C@@H]6N)cc(OC)c4n3C)n(CC3CC3)c12", "note": "[Example 5, (1R,4R,7R)-2-{2-[1-(cyclopropylmethyl)-7-propyl-1H-indol-2-yl]-7-methoxy-1-methyl-1H-1,3-benzodiazole-5-carbonyl}-2-azabicyclo[2.2.1]heptan-7-amine]", "IC50": 187}, {"smiles": "COc1cc(C(=O)N2C[C@H]3CC[C@@H]2[C@@H]3N)cc2nc(-c3cc4cccc(C5CN(C(=O)C(C)(C)O)C5)c4n3CC3CC3)n(C)c12", "note": "[Example 69, 1-[3-(2-{5-[(1R,4R,7R)-7-amino-2-azabicyclo[2.2.1]heptane-2-carbonyl]-7-methoxy-1-methyl-1H-1,3-benzodiazol-2-yl}-1-(cyclopropylmethyl)-1H-indol-7-yl)azetidin-1-yl]-2-hydroxy-2-methylpropan-1-one]", "IC50": 50}, {"smiles": "COc1cc(C(=O)N2C[C@H]3CC[C@@H]2[C@@H]3N)cc2nc(-c3cc4cccc(-c5cn[nH]c5)c4n3CC3CC3C)n(C)c12", "note": "(stereo partly drawn) [Example 156, ((1R,4R,7R)-7-amino-2-azabicyclo[2.2.1]heptan-2-yl)(7-methoxy-1-methyl-2-(1-((2-methylcyclopropyl)meth-yl)-7-(1H-pyrazol-4-yl)-1H-indol-2-yl)-1H-benzo[d]imidazol-5-yl)methanone]", "IC50": 79}, {"smiles": "COc1cc(C(=O)N2C[C@H]3CC[C@@H]2[C@@H]3N)cc2nc(-c3cc4cccc(-c5cnc(C#N)nc5)c4n3CC3CC3(F)F)n(C)c12", "note": "(stereo partly drawn) [Example 149, 5-(2-(5-((1R,4R,7R)-7-amino-2-azabicyclo[2.2.1]heptane-2-carbonyl)-7-methoxy-1-methyl-1H-benzo[d]imidazol-2-yl)-1-((2,2-difluorocyclopropyl)meth-yl)-1H-indol-7-yl)pyrimidine-2-carbonitrile]", "IC50": 168}, {"smiles": "[2H]C([2H])([2H])N(C(=O)C1CC(c2cccc3cc(-c4nc5cc(C(=O)N6C[C@H]7CC[C@@H]6[C@@H]7N)cc(OC)c5n4C)n(CC4CC4)c23)C1)C([2H])([2H])[2H]", "note": "(single isomer, unassigned; isomer 1) [Example 195]", "IC50": 16}, {"smiles": "COc1cc(C(=O)N2CC3CCC2[C@@H]3N)cc2nc(-c3cc4cccc(Nc5ccc(CO)cc5)c4n3CC3CC3)n(C)c12", "note": "(stereo partly drawn) [Example 164, ((7R)-7-amino-2-azabicyclo[2.2.1]heptan-2-yl)(2-(1-(cyclopropylmethyl)-7-((4-(hydroxymethyl)phenyl)a-mino)-1H-indol-2-yl)-7-methoxy-1-methyl-1H-benzo[d]imidazol-5-yl)methanone]", "IC50": 153}, {"smiles": "COc1cc(C(=O)N2C[C@H](N)C[C@@H](F)C2)cc2nc(-c3cc4cccc(C5CC(C(N)=O)C5)c4n3CC3CC3)n(C)c12", "note": "(single isomer, unassigned) [Example 113]", "IC50": 52}, {"smiles": "COCCC(=O)N1CCC(c2cccc3cc(-c4nc5cc(C(=O)N6C[C@H]7CC[C@@H]6[C@@H]7N)cc(OC)c5n4C)n(CC4CC4)c23)CC1", "note": "[Example 236, 1-(4-(2-(5-((1R,4R,7R)-7-amino-2-azabicyclo[2.2.1]heptane-2-carbonyl)-7-methoxy-1-methyl-1H-benzo[d]imidazol-2-yl)-1-(cyclopropylmethyl)-1H-indol-7-yl)piperidin-1-yl)-3-methoxypropan-1-one]", "IC50": 57}, {"smiles": "COc1cc(C(=O)N2C[C@H]3CC[C@@H]2[C@@H]3N)cc2nc(-c3cc4cccc(C5CC(C(=O)O)C5)c4n3CC3CC3)n(C)c12", "note": "(single isomer, unassigned) [Example 56]", "IC50": 170}, {"smiles": "COc1cc(C(=O)N2C[C@H]3CC[C@@H]2[C@@H]3N)cc2nc(-c3cc4cccc(-c5cn(CC(C)(C)O)nc5C)c4n3CC3CC3)n(C)c12", "note": "[Example 139, ((1R,4R,7R)-7-amino-2-azabicyclo[2.2.1]heptan-2-yl)(2-(1-(cyclopropylmethyl)-7-(1-(2-hydroxy-2-methylpropyl)-3-methyl-1H-pyrazol-4-yl)-1H-indol-2-yl)-7-methoxy-1-methyl-1H-benzo[d]imidazol-5-yl)methanone]", "IC50": 180}, {"smiles": "COc1ccccc1NC(=O)N1CCC(c2cccc3cc(-c4nc5cc(C(=O)N6C[C@H]7CC[C@@H]6[C@@H]7N)cc(OC)c5n4C)n(CC4CC4)c23)CC1", "note": "[Example 247, 4-(2-(5-((1R,4R,7R)-7-amino-2-azabicyclo[2.2.1]heptane-2-carbonyl)-7-methoxy-1-methyl-1H-benzo[d]imidazol-2-yl)-1-(cyclopropylmethyl)-1H-indol-7-yl)-N-(2-methoxyphenyl)piperi-dine-1-carboxamide]", "IC50": 9}, {"smiles": "COc1cc(C(=O)N2C[C@H]3CC[C@@H]2[C@@H]3N)cc2nc(-c3cc4cccc(-c5ccc(C(=O)N(C)C)cc5)c4n3CC3CC3)n(C)c12", "note": "[Example 125, 4-(2-(5-((1R,4R,7R)-7-amino-2-azabicyclo[2.2.1]heptane-2-carbonyl)-7-methoxy-1-methyl-1H-benzo[d]imidazol-2-yl)-1-(cyclopropylmethyl)-1H-indol-7-yl)-N,N-dimethylbenzamide]", "IC50": 125}, {"smiles": "COc1cc(C(=O)N2C[C@H]3CC[C@@H]2[C@@H]3N)cc2nc(-c3cc4cccc(CC5CCCCO5)c4n3CC3CC3)n(C)c12", "note": "(stereo partly drawn) [Example 36, (1R,4R,7R)-2-{2-[1-(cyclopropylmethyl)-7-[(oxan-2-yl)methyl]-1H-indol-2-yl]-7-methoxy-1-methyl-1H-1,3-benzodiazole-5-carbonyl}-2-azabicyclo[2.2.1]heptan-7-amine]", "IC50": 199}, {"smiles": "COc1cc(C(=O)N2CC3CCC2[C@@H]3N)cc2nc(-c3cc4cccc(Nc5ccnc(C(N)=O)n5)c4n3CC3CC3)n(C)c12", "note": "(stereo partly drawn) [Example 160, 4-((2-(5-((7R)-7-amino-2-azabicyclo[2.2.1]heptane-2-carbonyl)-7-methoxy-1-methyl-1H-benzo[d]imidazol-2-yl)-1-(cyclopropylmethyl)-1H-indol-7-yl)amino)pyrimidine-2-carboxamide]", "IC50": 110}]}]}
